Measured values published in PubChem BioAssay (NCI).
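How tested: cells in 96-well plates exposed to compound for 48 hours at five concentrations. At the GI50, growth is halved. The concentration for full growth arrest is given as TGI.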

How the values were obtained:
Test in all cases: inhibition of tumour cell growth, NCI panel, 48 h
NCI-H226 lung = system: NCI-H226 lung
NCI-H23 lung = system: NCI-H23 lung
NCI-H460 lung = system: NCI-H460 lung
NCI-H522 lung = system: NCI-H522 lung
NCI/ADR-RES ovarian = system: NCI/ADR-RES ovarian
OVCAR-3 ovarian = system: OVCAR-3 ovarian
OVCAR-4 ovarian = system: OVCAR-4 ovarian
OVCAR-5 ovarian = system: OVCAR-5 ovarian
OVCAR-8 ovarian = system: OVCAR-8 ovarian
PC-3 prostate = system: PC-3 prostate
RPMI-8226 leukemia = system: RPMI-8226 leukemia
RXF 393 renal = system: RXF 393 renal
SF-268 CNS = system: SF-268 CNS
SF-295 CNS = system: SF-295 CNS
SF-539 CNS = system: SF-539 CNS
SK-MEL-2 melanoma = system: SK-MEL-2 melanoma
SK-MEL-28 melanoma = system: SK-MEL-28 melanoma
SK-MEL-5 melanoma = system: SK-MEL-5 melanoma
SK-OV-3 ovarian = system: SK-OV-3 ovarian
SN12C renal = system: SN12C renal
SNB-19 CNS = system: SNB-19 CNS
SNB-75 CNS = system: SNB-75 CNS
SW-620 colon = system: SW-620 colon
T-47D breast = system: T-47D breast
TK-10 renal = system: TK-10 renal
U251 CNS = system: U251 CNS
UACC-257 melanoma = system: UACC-257 melanoma
UACC-62 melanoma = system: UACC-62 melanoma
UO-31 renal = system: UO-31 renal

Structure (SMILES): Cc1cc(Cl)ccc1OCc1nn2c(CCCCc3nnc4sc(COc5ccc(Cl)cc5C)nn34)nnc2s1
- TGI (NCI-H226 lung): 74.5 µM
- GI50 (NCI-H23 lung): 29.8 µM
- TGI (NCI-H23 lung): > 100 µM
- GI50 (NCI-H460 lung): 24.7 µM
- TGI (NCI-H460 lung): > 93.6 µM
- GI50 (NCI-H522 lung): 20.8 µM
- TGI (NCI-H522 lung): 61.7 µM
- GI50 (NCI/ADR-RES ovarian): 23 µM
- TGI (NCI/ADR-RES ovarian): 74 µM
- GI50 (OVCAR-3 ovarian): 7.99 µM
- TGI (OVCAR-3 ovarian): 72.2 µM
- GI50 (OVCAR-4 ovarian): 21.2 µM
- TGI (OVCAR-4 ovarian): > 69.6 µM
- GI50 (OVCAR-5 ovarian): > 100 µM
- TGI (OVCAR-5 ovarian): > 100 µM
- GI50 (OVCAR-8 ovarian): 8.99 µM
- TGI (OVCAR-8 ovarian): > 83.1 µM
- GI50 (PC-3 prostate): 22.4 µM
- TGI (PC-3 prostate): > 80.1 µM
- GI50 (RPMI-8226 leukemia): 18.9 µM
- TGI (RPMI-8226 leukemia): > 100 µM
- GI50 (RXF 393 renal): 18 µM
- TGI (RXF 393 renal): 62.8 µM
- GI50 (SF-268 CNS): 23 µM
- TGI (SF-268 CNS): > 76.7 µM
- GI50 (SF-295 CNS): 8.28 µM
- TGI (SF-295 CNS): 76.2 µM
- TGI (SF-539 CNS): 1.47 µM
- GI50 (SK-MEL-2 melanoma): > 63.4 µM
- TGI (SK-MEL-2 melanoma): > 89.5 µM
- GI50 (SK-MEL-28 melanoma): 52.7 µM
- TGI (SK-MEL-28 melanoma): > 100 µM
- GI50 (SK-MEL-5 melanoma): 1.68 µM
- TGI (SK-MEL-5 melanoma): 9.75 µM
- GI50 (SK-OV-3 ovarian): 35.4 µM
- TGI (SK-OV-3 ovarian): 73.1 µM
- GI50 (SN12C renal): 37.8 µM
- TGI (SN12C renal): > 100 µM
- GI50 (SNB-19 CNS): 48.9 µM
- TGI (SNB-19 CNS): > 80.4 µM
- GI50 (SNB-75 CNS): 13.8 µM
- TGI (SNB-75 CNS): 51 µM
- GI50 (SW-620 colon): 3.48 µM
- TGI (SW-620 colon): > 41 µM
- GI50 (T-47D breast): 14.6 µM
- TGI (T-47D breast): 57.2 µM
- GI50 (TK-10 renal): 26.2 µM
- TGI (TK-10 renal): 74.2 µM
- GI50 (U251 CNS): 25.3 µM
- TGI (U251 CNS): > 74.7 µM
- GI50 (UACC-257 melanoma): 8.41 µM
- TGI (UACC-257 melanoma): > 100 µM
- GI50 (UACC-62 melanoma): 22.6 µM
- TGI (UACC-62 melanoma): > 100 µM
- GI50 (UO-31 renal): 14.5 µM
- TGI (UO-31 renal): > 100 µM
